# Key:
# angiotensin II (AT II) [1] = assay: Potency of AT II analogs: inhibition of the increase in blood pressure caused by AT II, with and without infusion of the analog; type: in vivo; settings: for Inhibiting effect in percent, 0.5mcg/kg i.v. AT II: AT II 0.5mcg/kg i.v.; for Inhibiting effect in percent, 1mcg/kg i.v. AT II: AT II 1mcg/kg i.v.; for Inhibiting effect in percent, 2mcg/kg i.v. AT II: AT II 2mcg/kg i.v.
# Procedure: (§1) The potency of the AT II analogs is determined by measuring the increase in blood pressure caused by increasing amounts of AT II with and without infusion of the analog to be tested, at different dosages; duration of action is determined on the basis of the time during which a single injection of the analog to be tested is effective under permanent infusion of AT II.
# angiotensin II (AT II) [2] = assay: Duration of action of a single injection of the analog under permanent infusion of AT II; type: in vivo; settings: single injection 0.1mg/kg i.v. under permanent infusion of AT II
# Procedure: as §1
# [3] = analog infusion 1 mcg/kg/min i.v.
# [4] = analog infusion 5 mcg/kg/min i.v.
# [5] = analog infusion 10mcg/kg/min i.v.
Substance,"Inhibiting effect in percent, 0.5mcg/kg i.v. AT II (angiotensin II (AT II) [1]; [3]) [%]","Inhibiting effect in percent, 0.5mcg/kg i.v. AT II (angiotensin II (AT II) [1]; [4]) [%]","Inhibiting effect in percent, 0.5mcg/kg i.v. AT II (angiotensin II (AT II) [1]; [5]) [%]","Inhibiting effect in percent, 1mcg/kg i.v. AT II (angiotensin II (AT II) [1]; [3]) [%]","Inhibiting effect in percent, 1mcg/kg i.v. AT II (angiotensin II (AT II) [1]; [4]) [%]","Inhibiting effect in percent, 1mcg/kg i.v. AT II (angiotensin II (AT II) [1]; [5]) [%]","Inhibiting effect in percent, 2mcg/kg i.v. AT II (angiotensin II (AT II) [1]; [3]) [%]","Inhibiting effect in percent, 2mcg/kg i.v. AT II (angiotensin II (AT II) [1]; [4]) [%]","Inhibiting effect in percent, 2mcg/kg i.v. AT II (angiotensin II (AT II) [1]; [5]) [%]",duration of action in min. 0.1mg/kg i.v. (angiotensin II (AT II) [2]) [min]
"Succinamoyl--Arg--Val--Tyr--Val--His--Pro--Phegly--OH [[Suc^1,Val^5 pgl^8] AT II]",42,88,98,51,94,94,55,93,92,89 ± 22
"[1-sarcosine,5-valine, 8-alanine] angiotensin II [[Sar^1,Val^5 Ala^8] AT II]",0,63,88,22,76,90,31,75,89,66 ± 21
